Measurements: ChEMBL document CHEMBL1131655 (Bioorg Med Chem Lett, 1998)

Legend:
[1] = target: T1, Adenosine receptor A1 (Homo sapiens) (UniProt P30542); experiment: Percentage extracellular acidification rate was evaluated against human adenosine A1 receptor expressed in CHO-K1 cells; format: functional, cell-based
T1 sequence (whole entry): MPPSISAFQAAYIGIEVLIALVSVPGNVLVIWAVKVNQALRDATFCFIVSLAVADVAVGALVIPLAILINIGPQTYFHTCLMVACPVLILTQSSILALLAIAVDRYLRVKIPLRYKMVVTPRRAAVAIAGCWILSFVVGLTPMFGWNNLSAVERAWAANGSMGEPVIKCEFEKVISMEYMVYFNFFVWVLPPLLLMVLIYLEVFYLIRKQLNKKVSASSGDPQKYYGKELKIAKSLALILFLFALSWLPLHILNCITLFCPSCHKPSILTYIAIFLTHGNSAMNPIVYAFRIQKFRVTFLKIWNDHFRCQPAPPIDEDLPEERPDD

Adenosine receptor A1 [2] = target: T2, Adenosine receptor A1 (Rattus norvegicus, UniProt P25099); experiment: Binding affinity against adenosine A1 receptor in rat brain using [3H]R-PIA; format: tissue-based
T2 sequence (P25099 whole entry): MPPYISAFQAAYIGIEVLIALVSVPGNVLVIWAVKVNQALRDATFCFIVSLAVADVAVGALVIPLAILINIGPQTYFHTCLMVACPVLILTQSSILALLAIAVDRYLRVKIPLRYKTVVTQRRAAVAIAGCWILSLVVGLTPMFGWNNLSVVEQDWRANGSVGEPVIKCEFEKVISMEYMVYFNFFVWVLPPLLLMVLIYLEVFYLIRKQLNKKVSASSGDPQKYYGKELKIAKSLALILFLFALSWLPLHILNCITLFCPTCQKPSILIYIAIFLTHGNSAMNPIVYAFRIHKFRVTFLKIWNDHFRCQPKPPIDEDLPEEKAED

[3] = target: T1, Adenosine receptor A1 (Homo sapiens); experiment: Emax for R-PIA against Human Adenosine A1 receptor
Adenosine receptor A1 [4] = target: T3, Adenosine receptor A1 (Homo sapiens, UniProt P30542); experiment: Binding against Human Adenosine A1 receptor
T3 sequence (P30542 whole entry): T1 sequence (whole entry)

ECAR [1] [%] | Ki (Adenosine receptor A1 [2]) [nM] | Emax [3] [%] | EC50 (Adenosine receptor A1 [4]) [nM] | SMILES
117 | 610 |  |  | NC1=Nc2c(ncn2C2O[C@@H](CO)[C@H](O)[C@@H]2O)C2=N[C@@H](c3ccccc3)CN12 (stereo partly drawn)
113 |  |  |  | OC[C@@H]1OC(n2cnc3c2N=CN2C[C@@H](c4ccccc4)N=C32)[C@@H](O)[C@H]1O (stereo partly drawn)
122 | 1020 | 90 | 100000 | NC1=Nc2c(ncn2C2O[C@@H](CO)[C@H](O)[C@@H]2O)C2=N[C@H](c3ccccc3)CN12 (stereo partly drawn)
106 |  |  |  | OC[C@@H]1OC(n2cnc3c2N=CN2C[C@H](c4ccccc4)N=C32)[C@@H](O)[C@H]1O (stereo partly drawn)
